Key:
[1] = Cell viability XTT assay; format: cell-based; conditions: rat, PC12 cells, read-out: Viability of treated cells relative to untreated control
[2] = test system: PC12 cells; assay: Cell viability XTT assay; format: cell-based; conditions: PC12, up to 10 μM, 3 days
[3] = target: ABL1 (Homo sapiens, UniProt P00519); assay: ProQinase radiometric kinase panel; conditions: mean of 2 exp.
[4] = target: ABL2 (Homo sapiens, UniProt P42684); assay: ProQinase radiometric kinase panel; conditions: mean of 2 exp.
[5] = target: ACV-R1 (Homo sapiens, UniProt Q04771); assay: ProQinase radiometric kinase panel; conditions: mean of 2 exp.
[6] = target: ACV-R2A (Homo sapiens, UniProt P27037); assay: ProQinase radiometric kinase panel; conditions: mean of 2 exp.
[7] = target: CAMKK1 (Homo sapiens, UniProt Q8N5S9); assay: ProQinase radiometric kinase panel; conditions: mean of 2 exp.
[8] = target: CDC42BPA (Homo sapiens, UniProt Q5VT25); assay: ProQinase radiometric kinase panel; conditions: mean of 2 exp.
[9] = target: CSK (Homo sapiens, UniProt P41240); assay: ProQinase radiometric kinase panel; conditions: mean of 2 exp.
CSK, sequence (P41240 whole entry): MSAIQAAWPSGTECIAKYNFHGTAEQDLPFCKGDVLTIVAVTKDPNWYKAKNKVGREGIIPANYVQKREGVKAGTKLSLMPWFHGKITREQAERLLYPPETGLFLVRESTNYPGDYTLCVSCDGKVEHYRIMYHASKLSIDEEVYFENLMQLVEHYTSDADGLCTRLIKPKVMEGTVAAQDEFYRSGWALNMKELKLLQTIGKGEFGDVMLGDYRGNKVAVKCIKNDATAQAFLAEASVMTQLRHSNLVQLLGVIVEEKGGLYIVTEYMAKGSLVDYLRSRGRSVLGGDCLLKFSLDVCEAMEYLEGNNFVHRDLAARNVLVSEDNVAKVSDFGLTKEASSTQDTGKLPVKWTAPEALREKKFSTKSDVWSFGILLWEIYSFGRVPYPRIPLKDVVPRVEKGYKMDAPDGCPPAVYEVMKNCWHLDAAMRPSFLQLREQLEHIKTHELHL

[10] = target: EEF2K (Homo sapiens, UniProt O00418); assay: ProQinase radiometric kinase panel; conditions: mean of 2 exp.
EEF2K, sequence (O00418 whole entry): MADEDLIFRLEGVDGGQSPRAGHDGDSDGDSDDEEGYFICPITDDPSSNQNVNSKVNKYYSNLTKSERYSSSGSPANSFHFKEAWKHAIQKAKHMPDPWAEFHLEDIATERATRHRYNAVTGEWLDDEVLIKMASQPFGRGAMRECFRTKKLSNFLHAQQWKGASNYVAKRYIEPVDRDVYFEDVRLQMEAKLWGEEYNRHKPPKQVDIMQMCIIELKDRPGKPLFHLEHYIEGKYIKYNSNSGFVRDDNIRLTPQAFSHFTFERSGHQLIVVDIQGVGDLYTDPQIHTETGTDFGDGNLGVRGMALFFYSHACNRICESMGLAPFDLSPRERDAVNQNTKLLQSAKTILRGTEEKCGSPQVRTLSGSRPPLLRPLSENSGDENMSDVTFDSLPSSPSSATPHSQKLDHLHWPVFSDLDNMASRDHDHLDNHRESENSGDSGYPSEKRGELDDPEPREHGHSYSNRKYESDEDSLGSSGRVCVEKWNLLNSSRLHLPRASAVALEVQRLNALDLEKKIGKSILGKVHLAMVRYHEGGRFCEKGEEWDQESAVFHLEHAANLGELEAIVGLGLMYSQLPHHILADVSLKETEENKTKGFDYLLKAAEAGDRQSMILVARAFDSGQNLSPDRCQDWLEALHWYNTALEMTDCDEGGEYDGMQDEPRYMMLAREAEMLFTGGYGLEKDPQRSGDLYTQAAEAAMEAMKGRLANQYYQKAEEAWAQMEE

[11] = target: EIF2AK2 (Homo sapiens, UniProt P19525); assay: ProQinase radiometric kinase panel; conditions: mean of 2 exp.
[12] = target: EPHA1 (Homo sapiens, UniProt P21709); assay: ProQinase radiometric kinase panel; conditions: mean of 2 exp.
[13] = target: EPHA2 (Homo sapiens, UniProt P29317); assay: ProQinase radiometric kinase panel; conditions: mean of 2 exp.
EPHA2, sequence (P29317 24-976): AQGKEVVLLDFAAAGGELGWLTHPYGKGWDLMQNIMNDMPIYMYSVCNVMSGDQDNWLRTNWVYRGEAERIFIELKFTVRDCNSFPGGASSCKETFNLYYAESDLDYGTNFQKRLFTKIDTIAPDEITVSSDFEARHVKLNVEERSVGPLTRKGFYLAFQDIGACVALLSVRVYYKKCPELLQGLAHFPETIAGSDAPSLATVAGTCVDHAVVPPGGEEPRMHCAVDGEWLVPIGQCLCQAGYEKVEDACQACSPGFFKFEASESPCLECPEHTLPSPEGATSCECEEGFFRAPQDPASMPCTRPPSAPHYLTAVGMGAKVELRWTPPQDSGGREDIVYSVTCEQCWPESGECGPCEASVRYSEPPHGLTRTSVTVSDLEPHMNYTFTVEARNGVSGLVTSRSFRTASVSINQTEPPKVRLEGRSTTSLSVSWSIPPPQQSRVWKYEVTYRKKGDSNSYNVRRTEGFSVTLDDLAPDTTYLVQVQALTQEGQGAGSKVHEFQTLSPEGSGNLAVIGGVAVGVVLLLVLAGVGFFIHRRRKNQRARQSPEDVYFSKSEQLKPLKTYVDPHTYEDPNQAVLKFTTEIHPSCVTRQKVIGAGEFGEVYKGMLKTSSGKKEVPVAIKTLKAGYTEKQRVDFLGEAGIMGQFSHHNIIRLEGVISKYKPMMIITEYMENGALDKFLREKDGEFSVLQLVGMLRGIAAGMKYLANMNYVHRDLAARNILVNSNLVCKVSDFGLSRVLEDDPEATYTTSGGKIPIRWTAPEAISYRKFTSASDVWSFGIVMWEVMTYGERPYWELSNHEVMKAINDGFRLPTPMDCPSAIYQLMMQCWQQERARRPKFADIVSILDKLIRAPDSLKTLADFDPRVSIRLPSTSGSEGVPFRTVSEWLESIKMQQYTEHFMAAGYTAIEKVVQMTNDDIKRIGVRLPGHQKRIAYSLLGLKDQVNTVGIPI

[14] = target: ERBB4 (Homo sapiens, UniProt Q15303); assay: ProQinase radiometric kinase panel; conditions: mean of 2 exp.
[15] = target: FGF-R1 (Homo sapiens, UniProt P11362); assay: ProQinase radiometric kinase panel; conditions: mean of 2 exp.
[16] = target: FGR (Homo sapiens, UniProt P09769); assay: ProQinase radiometric kinase panel; conditions: mean of 2 exp.
[17] = target: FRK (Homo sapiens, UniProt P42685); assay: ProQinase radiometric kinase panel; conditions: mean of 2 exp.
[18] = target: GRK2 (Homo sapiens, UniProt P25098); assay: ProQinase radiometric kinase panel; conditions: mean of 2 exp.
[19] = target: T1, HIPK4 (Homo sapiens, UniProt Q8NE63); assay: ProQinase radiometric kinase panel; conditions: mean of 2 exp.
T1 sequence (Q8NE63 1-616): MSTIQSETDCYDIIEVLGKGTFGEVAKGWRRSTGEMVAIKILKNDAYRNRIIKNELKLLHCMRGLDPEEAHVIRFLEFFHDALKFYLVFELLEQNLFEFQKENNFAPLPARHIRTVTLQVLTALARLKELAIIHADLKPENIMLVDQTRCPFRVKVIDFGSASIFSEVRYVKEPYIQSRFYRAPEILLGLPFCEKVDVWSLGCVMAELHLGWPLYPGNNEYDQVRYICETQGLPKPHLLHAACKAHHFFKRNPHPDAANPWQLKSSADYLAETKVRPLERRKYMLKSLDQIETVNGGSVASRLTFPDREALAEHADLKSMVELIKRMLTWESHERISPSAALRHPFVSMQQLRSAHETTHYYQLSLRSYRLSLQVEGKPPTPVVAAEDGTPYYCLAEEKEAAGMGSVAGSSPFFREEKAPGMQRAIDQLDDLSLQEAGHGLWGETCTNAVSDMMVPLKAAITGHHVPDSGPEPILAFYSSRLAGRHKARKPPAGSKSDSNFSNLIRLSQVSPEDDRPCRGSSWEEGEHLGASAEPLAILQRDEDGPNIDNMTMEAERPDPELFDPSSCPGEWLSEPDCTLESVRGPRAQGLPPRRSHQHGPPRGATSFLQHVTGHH

[20] = target: IGF1-R (Homo sapiens, UniProt P08069); assay: ProQinase radiometric kinase panel; conditions: mean of 2 exp.
[21] = target: JNK1 (Homo sapiens, UniProt P45983); assay: ProQinase radiometric kinase panel; conditions: mean of 2 exp.
JNK1, sequence (P45983 whole entry): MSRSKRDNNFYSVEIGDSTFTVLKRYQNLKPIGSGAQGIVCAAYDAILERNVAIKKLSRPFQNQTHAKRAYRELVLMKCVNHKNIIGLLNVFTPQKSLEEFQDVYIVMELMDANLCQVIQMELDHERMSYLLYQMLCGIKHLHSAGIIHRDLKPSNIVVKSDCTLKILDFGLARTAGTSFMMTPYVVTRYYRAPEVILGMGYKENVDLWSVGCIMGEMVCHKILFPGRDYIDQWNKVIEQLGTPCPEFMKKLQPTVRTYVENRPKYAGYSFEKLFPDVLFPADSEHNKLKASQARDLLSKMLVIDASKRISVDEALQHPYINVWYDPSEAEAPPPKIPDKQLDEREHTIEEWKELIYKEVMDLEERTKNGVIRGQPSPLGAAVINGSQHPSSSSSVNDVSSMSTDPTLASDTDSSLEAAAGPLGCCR

[22] = target: MERTK (Homo sapiens, UniProt Q12866); assay: ProQinase radiometric kinase panel; conditions: mean of 2 exp.
[23] = target: NEK1 (Homo sapiens, UniProt Q96PY6); assay: ProQinase radiometric kinase panel; conditions: mean of 2 exp.
[24] = target: NEK2 (Homo sapiens, UniProt P51955); assay: ProQinase radiometric kinase panel; conditions: mean of 2 exp.
NEK2, sequence (P51955 whole entry): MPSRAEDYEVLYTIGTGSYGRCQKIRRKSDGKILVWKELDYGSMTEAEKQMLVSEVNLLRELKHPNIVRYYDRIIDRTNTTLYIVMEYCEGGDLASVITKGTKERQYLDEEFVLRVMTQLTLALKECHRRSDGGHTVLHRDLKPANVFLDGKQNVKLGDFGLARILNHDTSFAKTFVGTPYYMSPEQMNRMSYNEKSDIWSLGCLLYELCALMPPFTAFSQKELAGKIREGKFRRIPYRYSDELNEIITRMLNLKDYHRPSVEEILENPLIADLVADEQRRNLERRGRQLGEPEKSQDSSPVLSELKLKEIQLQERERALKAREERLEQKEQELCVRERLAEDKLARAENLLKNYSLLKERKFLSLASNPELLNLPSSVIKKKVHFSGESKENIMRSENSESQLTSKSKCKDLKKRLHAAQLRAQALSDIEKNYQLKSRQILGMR

[25] = target: PASK (Homo sapiens, UniProt Q96RG2); assay: ProQinase radiometric kinase panel; conditions: mean of 2 exp.
PASK, sequence (Q96RG2 whole entry): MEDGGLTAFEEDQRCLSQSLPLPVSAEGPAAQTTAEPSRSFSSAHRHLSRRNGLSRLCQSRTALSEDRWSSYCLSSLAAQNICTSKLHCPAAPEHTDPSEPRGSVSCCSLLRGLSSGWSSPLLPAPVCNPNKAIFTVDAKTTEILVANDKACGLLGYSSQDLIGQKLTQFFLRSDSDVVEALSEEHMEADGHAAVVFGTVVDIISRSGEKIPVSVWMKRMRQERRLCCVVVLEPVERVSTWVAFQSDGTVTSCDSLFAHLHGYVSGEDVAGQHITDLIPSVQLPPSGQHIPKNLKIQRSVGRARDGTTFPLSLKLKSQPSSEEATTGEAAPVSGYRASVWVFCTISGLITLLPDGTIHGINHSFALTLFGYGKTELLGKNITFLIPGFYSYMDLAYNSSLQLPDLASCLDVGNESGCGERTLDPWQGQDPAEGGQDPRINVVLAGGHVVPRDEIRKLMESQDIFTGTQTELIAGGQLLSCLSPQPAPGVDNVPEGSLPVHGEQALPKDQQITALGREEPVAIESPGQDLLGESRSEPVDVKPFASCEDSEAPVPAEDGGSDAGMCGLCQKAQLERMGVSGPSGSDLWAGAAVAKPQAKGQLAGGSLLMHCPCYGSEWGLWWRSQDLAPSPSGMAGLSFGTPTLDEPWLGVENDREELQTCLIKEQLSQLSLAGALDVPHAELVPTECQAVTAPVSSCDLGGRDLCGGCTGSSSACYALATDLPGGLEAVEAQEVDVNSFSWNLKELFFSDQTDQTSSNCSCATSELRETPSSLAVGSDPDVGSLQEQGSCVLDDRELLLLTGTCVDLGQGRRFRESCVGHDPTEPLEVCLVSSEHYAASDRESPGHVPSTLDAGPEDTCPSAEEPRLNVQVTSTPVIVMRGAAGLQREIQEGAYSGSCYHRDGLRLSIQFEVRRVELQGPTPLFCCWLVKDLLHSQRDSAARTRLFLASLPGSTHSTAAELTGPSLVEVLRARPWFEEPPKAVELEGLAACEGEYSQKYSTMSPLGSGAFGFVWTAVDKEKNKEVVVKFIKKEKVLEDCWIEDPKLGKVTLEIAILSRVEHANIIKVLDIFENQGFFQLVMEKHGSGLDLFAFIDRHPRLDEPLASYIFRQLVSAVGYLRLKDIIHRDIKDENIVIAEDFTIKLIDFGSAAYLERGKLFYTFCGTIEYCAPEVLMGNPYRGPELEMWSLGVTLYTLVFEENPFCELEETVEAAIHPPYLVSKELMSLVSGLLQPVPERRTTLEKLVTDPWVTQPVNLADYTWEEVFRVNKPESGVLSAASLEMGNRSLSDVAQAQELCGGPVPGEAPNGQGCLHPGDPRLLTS

[26] = target: PHKG1 (Homo sapiens, UniProt Q16816); assay: ProQinase radiometric kinase panel; conditions: mean of 2 exp.
[27] = target: PLK3 (Homo sapiens, UniProt Q9H4B4); assay: ProQinase radiometric kinase panel; conditions: mean of 2 exp.
PLK3, sequence (Q9H4B4 whole entry): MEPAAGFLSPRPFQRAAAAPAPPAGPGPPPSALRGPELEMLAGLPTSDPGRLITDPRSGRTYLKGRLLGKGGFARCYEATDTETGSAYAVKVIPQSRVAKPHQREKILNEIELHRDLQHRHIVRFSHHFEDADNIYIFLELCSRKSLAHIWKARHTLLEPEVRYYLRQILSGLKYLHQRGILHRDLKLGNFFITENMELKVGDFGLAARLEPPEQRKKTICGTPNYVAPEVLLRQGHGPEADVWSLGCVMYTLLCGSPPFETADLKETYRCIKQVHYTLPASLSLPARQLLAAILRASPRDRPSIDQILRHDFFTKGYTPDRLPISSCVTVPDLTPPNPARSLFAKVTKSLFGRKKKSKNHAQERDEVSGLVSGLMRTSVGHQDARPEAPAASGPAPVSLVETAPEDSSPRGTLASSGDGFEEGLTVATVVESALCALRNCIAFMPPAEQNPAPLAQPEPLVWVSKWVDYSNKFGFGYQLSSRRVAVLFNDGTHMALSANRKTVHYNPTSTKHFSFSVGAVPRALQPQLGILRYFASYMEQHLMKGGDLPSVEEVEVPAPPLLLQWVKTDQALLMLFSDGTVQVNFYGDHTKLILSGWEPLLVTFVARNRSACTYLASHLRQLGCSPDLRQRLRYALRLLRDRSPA

[28] = target: PRK2 (Homo sapiens, UniProt Q16513); assay: ProQinase radiometric kinase panel; conditions: mean of 2 exp.
[29] = target: SYK (Homo sapiens, UniProt P43405); assay: ProQinase radiometric kinase panel; conditions: mean of 2 exp.
[30] = target: TRK-B (Homo sapiens, UniProt Q16620); assay: ProQinase radiometric kinase panel; conditions: mean of 2 exp.
[31] = target: VEGF-R2 (Homo sapiens, UniProt P35968); assay: ProQinase radiometric kinase panel; conditions: mean of 2 exp.
[32] = target: WNK2 (Homo sapiens, UniProt Q9Y3S1); assay: ProQinase radiometric kinase panel; conditions: mean of 2 exp.

Work on `COc1ccc2c3ccnc(Cl)c3n(CC#N)c2c1` [AnnH75] yielded a viability at 3 days, 1 µM ([1]; PC12, 1 μM) of 94%, a viability at 3 days, 3 µM ([1]; PC12, 3 μM) of 100% and a viability at 3 days, 10 µM ([1]; PC12, 10 μM) of 95%. For the same molecule, the “cytotoxicity” value [2] was “minimal cytotoxicity”, the “residual activity at 1 µM, Mean” value [3] was 95 % of control and the “residual activity at 1 µM, Mean” value [4] was 96 % of control. The “residual activity at 1 µM, Mean” value [5] was 93 % of control, the “residual activity at 1 µM, Mean” value [6] was 97 % of control and the “residual activity at 1 µM, Mean” value [7] was 89 % of control. For the same molecule, the “residual activity at 1 µM, Mean” value [8] was 76 % of control, the “residual activity at 1 µM, Mean” value [9] was 94 % of control and the “residual activity at 1 µM, Mean” value [10] was 98 % of control. For the same molecule, the “residual activity at 1 µM, Mean” value [11] was 95 % of control, the “residual activity at 1 µM, Mean” value [12] was 92 % of control and the “residual activity at 1 µM, Mean” value [13] was 93 % of control. The “residual activity at 1 µM, Mean” value [14] was 90 % of control, the “residual activity at 1 µM, Mean” value [15] was 97 % of control and the “residual activity at 1 µM, Mean” value [16] was 101 % of control. For the same molecule, the “residual activity at 1 µM, Mean” value [17] was 94 % of control, the “residual activity at 1 µM, Mean” value [18] was 92 % of control and the “residual activity at 1 µM, Mean” value [19] was 88 % of control. For the same molecule, the “residual activity at 1 µM, Mean” value [20] was 83 % of control, the “residual activity at 1 µM, Mean” value [21] was 99 % of control and the “residual activity at 1 µM, Mean” value [22] was 91 % of control. For the same molecule, the “residual activity at 1 µM, Mean” value [23] was 101 % of control, the “residual activity at 1 µM, Mean” value [24] was 90 % of control and the “residual activity at 1 µM, Mean” value [25] was 74 % of control. For the same molecule, the “residual activity at 1 µM, Mean” value [26] was 91 % of control, the “residual activity at 1 µM, Mean” value [27] was 96 % of control and the “residual activity at 1 µM, Mean” value [28] was 88 % of control. The “residual activity at 1 µM, Mean” value [29] was 101 % of control, the “residual activity at 1 µM, Mean” value [30] was 72 % of control and the “residual activity at 1 µM, Mean” value [31] was 98 % of control. The “residual activity at 1 µM, Mean” value [32] was 98 % of control.
